Laboratory results: patent publication US10836768B2, “N-acyl-(3-substituted)-(8-substituted)-5,6-dihydro-[1,2,4]triazolo[4,3-a]pyrazines as selective NK-3 receptor antagonists” (OGEDA SA, priority 2013, dated 2020)

Assay: Determination of plasma protein binding (equilibrium dialysis)
Assay type: in vitro ADME
Settings: bound drug fraction to plasma protein; 4 hours at 37° C.
From the text: Determination of Plasma Protein Binding
The pharmacokinetic and pharmacodynamic properties of chemicals/drugs are largely a function of the reversible binding of chemicals to plasma or serum proteins. […] Consequently, the extent of the plasma protein binding (PPB) of a compound influences its action as well as its distribution and elimination.
The determination of plasma protein binding (PPB) of a compound is enabled by equilibrium dialysis, an accepted and standard method for reliable estimation of the non-bound drug fraction in plasma. RED (Rapid Equilibrium Dialysis) device insert is made of two side-by-side chambers separated by an O-ring-sealed vertical cylinder of dialysis membrane (MWCO ˜8,000). […] After 4 hours incubation at 37° C. under shaking, an aliquot is removed from each chamber and analyzed by a LC-MS/MS procedure enables the determination of both free and bound drug.
The “free fraction” may be calculated as 100%−% rPPB (i.e. the complementary percentage of that disclosed in Table 4, corresponding to the drug concentration that is unbound and therefore available to engage biological target and elicit pharmacological activity).

| Exposure (% rPPB) | Compound |
| --- | --- |
| 24% | COc1cccc(C(=O)N2CCn3c(-c4nc(C)ns4)nnc3[C@H]2C)c1 [Compound 27, (R)-(3-methoxyphenyl)(8-methyl-3-(3-methyl-1,2,4-thiadiazol-5-yl)-5,6-dihydro-[1,2,4]triazolo[4,3-a]pyrazin-7(8H)-yl)methanone] |
| 30% | Cc1nsc(-c2nnc3n2CCN(C(=O)c2cc(F)c(F)c(F)c2F)[C@@H]3C)n1 [Compound 10, (R)-(8-methyl-3-(3-methyl-1,2,4-thiadiazol-5-yl)-5,6-dihydro-[1,2,4]triazolo[4,3-a]pyrazin-7(8H)-yl)(2,3,4,5-tetrafluorophenyl)methanone] |
| 27% | CC[C@@H]1c2nnc(-c3nc(C)ns3)n2CCN1C(=O)c1ccc(F)cc1 [Compound 22, (R)-(8-ethyl-3-(3-methyl-1,2,4-thiadiazol-5-yl)-5,6-dihydro-[1,2,4]triazolo[4,3-a]pyrazin-7(8H)-yl)(4-fluorophenyl)methanone] |
| 10% | Cc1nsc(-c2nnc3n2CCN(C(=O)c2ccc(C#N)cc2)[C@@H]3C)n1 [Compound 29, (R)-4-(8-methyl-3-(3-methyl-1,2,4-thiadiazol-5-yl)-5,6,7,8-tetrahydro-[1,2,4]triazolo[4,3-a]pyrazine-7-carbonyl)benzonitrile] |
| 43% | CCc1nsc(-c2nnc3n2CCN(C(=O)c2ccc(F)cc2)C3C)n1 (racemic) [Compound 39, (3-(3-ethyl-1,2,4-thiadiazol-5-yl)-8-methyl-5,6-dihydro-[1,2,4]triazolo[4,3-a]pyrazin-7(8H)-yl)(4-fluorophenyl)methanone] |
| 19% | COc1cc(C(=O)N2CCn3c(-c4nc(C)ns4)nnc3[C@H]2C)ccc1F [Compound 25, (R)-(4-fluoro-3-methoxyphenyl)(8-methyl-3-(3-methyl-1,2,4-thiadiazol-5-yl)-5,6-dihydro-[1,2,4]triazolo[4,3-a]pyrazin-7(8H)-yl)methanone] |
| 16% | C[C@@H]1c2nnc(-c3nc(C(F)F)ns3)n2CCN1C(=O)c1ccc(F)cc1 [Compound 42, (R)-(3-(3-(difluoromethyl)-1,2,4-thiadiazol-5-yl)-8-methyl-5,6-dihydro-[1,2,4]triazolo[4,3-a]pyrazin-7(8H)-yl)(4-fluorophenyl)methanone] |
| 33% | C[C@H](F)c1noc(-c2nnc3n2CCN(C(=O)c2ccc(F)cc2)[C@@H]3C)n1 [Compound 45-2] |
| 36% | Cc1nsc(-c2nnc3n2CCN(C(=O)c2cccc(Cl)c2)[C@@H]3C)n1 [Compound 16, (R)-(3-chlorophenyl)(8-methyl-3-(3-methyl-1,2,4-thiadiazol-5-yl)-5,6-dihydro-[1,2,4]triazolo[4,3-a]pyrazin-7(8H)-yl)methanone] |
| 60% | Cc1nsc(-c2nnc3n2CCN(C(=O)c2ccc(Cl)c(F)c2)C3C)n1 (racemic) [Compound 36, (4-chloro-3-fluorophenyl)(8-methyl-3-(3-methyl-1,2,4-thiadiazol-5-yl)-5,6-dihydro-[1,2,4]triazolo[4,3-a]pyrazin-7(8H)-yl)methanone] |
| 12% | Cc1noc(-c2nnc3n2CCN(C(=O)c2ccc(F)cc2)[C@@H]3C)n1 [Compound 28, (R)-(4-fluorophenyl)(8-methyl-3-(3-methyl-1,2,4-oxadiazol-5-yl)-5,6-dihydro-[1,2,4]triazolo[4,3-a]pyrazin-7(8H)-yl)methanone] |
| 53% | Cc1nsc(-c2nnc3n2CCN(C(=O)c2ccc(F)c(Cl)c2)[C@@H]3C)n1 [Compound 6, (R)-(3-chloro-4-fluorophenyl)(8-methyl-3-(3-methyl-1,2,4-thiadiazol-5-yl)-5,6-dihydro-[1,2,4]triazolo[4,3-a]pyrazin-7(8H)-yl)methanone] |
| 25% | Cc1nsc(-c2nnc3n2CCN(C(=O)c2ccc(F)c(F)c2)C3C)n1 (racemic) [Compound 32] |
| 38% | Cc1nsc(-c2nnc3n2CCN(C(=O)c2ccc(C(F)(F)F)cc2)[C@@H]3C)n1 [Compound 21, (R)-(8-methyl-3-(3-methyl-1,2,4-thiadiazol-5-yl)-5,6-dihydro-[1,2,4]triazolo[4,3-a]pyrazin-7(8H)-yl)(4-(trifluoromethyl)phenyl) methanone] |
| 48% | CCC[C@@H]1c2nnc(-c3nc(C)ns3)n2CCN1C(=O)c1ccc(F)cc1 [Compound 24, (R)-(4-fluorophenyl)(3-(3-methyl-1,2,4-thiadiazol-5-yl)-8-propyl-5,6-dihydro-[1,2,4]triazolo[4,3-a]pyrazin-7(8H)-yl)methanone] |
| 51% | Cc1ccc(C(=O)N2CCn3c(-c4nc(C)ns4)nnc3[C@H]2C)cc1 [Compound 19, (R)-(8-methyl-3-(3-methyl-1,2,4-thiadiazol-5-yl)-5,6-dihydro-[1,2,4]triazolo[4,3-a]pyrazin-7(8H)-yl)(p-tolyl)methanone] |

| Exposure (% rPPB) | Compound |
| --- | --- |
| 19% | Cc1nsc(-c2nnc3n2CCN(C(=O)c2ccccc2C)[C@@H]3C)n1 [Compound 26, (R)-(8-methyl-3-(3-methyl-1,2,4-thiadiazol-5-yl)-5,6-dihydro-[1,2,4]triazolo[4,3-a]pyrazin-7(8H)-yl)(o-tolyl)methanone] |
| 24% | Cc1nsc(-c2nnc3n2CCN(C(=O)c2cc(F)cc(F)c2)[C@@H]3C)n1 [Compound 17, (R)-(3,5-difluorophenyl)(8-methyl-3-(3-methyl-1,2,4-thiadiazol-5-yl)-5,6-dihydro-[1,2,4]triazolo[4,3-a]pyrazin-7(8H)-yl)methanone] |
| 34% | CCC1c2nnc(-c3nc(C)ns3)n2CCN1C(=O)c1ccc(F)cc1 (racemic) [Compound 23, (8-ethyl-3-(3-methyl-1,2,4-thiadiazol-5-yl)-5,6-dihydro-[1,2,4]triazolo[4,3-a]pyrazin-7(8H)-yl)(4-fluorophenyl)methanone] |
| 47% | C[C@@H]1c2nnc(-c3nc(C(C)(F)F)no3)n2CCN1C(=O)c1ccc(F)cc1 [Compound 43, (R)-(3-(3-(1,1-difluoroethyl)-1,2,4-oxadiazol-5-yl)-8-methyl-5,6-dihydro-[1,2,4]triazolo[4,3-a]pyrazin-7(8H)-yl)(4-fluorophenyl)methanone] |
| 31% | C[C@@H]1c2nnc(-c3nc(CC(F)(F)F)no3)n2CCN1C(=O)c1ccc(F)cc1 [Compound 44, (R)-(4-fluorophenyl)(8-methyl-3-(3-(2,2,2-trifluoroethyl)-1,2,4-oxadiazol-5-yl)-5,6-dihydro-[1,2,4]triazolo[4,3-a]pyrazin-7(8H)-yl)methanone] |
| 26% | Cc1nsc(-c2nnc3n2CCN(C(=O)c2cc(F)c(F)c(F)c2)[C@@H]3C)n1 [Compound 7, (R)-(8-methyl-3-(3-methyl-1,2,4-thiadiazol-5-yl)-5,6-dihydro-[1,2,4]triazolo[4,3-a]pyrazin-7(8H)-yl)(3,4,5-trifluorophenyl)methanone] |
| 31% | CC(F)c1noc(-c2nnc3n2CCN(C(=O)c2ccc(F)cc2)[C@@H]3C)n1 (stereo partly drawn) [Compound 45, ((8R)-3-(3-(1-fluoroethyl)-1,2,4-oxadiazol-5-yl)-8-methyl-5,6-dihydro-[1,2,4]triazolo[4,3-a]pyrazin-7(8H)-yl)(4-fluorophenyl)methanone] |
| 24% | Cc1nsc(-c2nnc3n2CCN(C(=O)c2cc(F)c(F)c(F)c2)C3C)n1 (racemic) [Compound 34, (8-methyl-3-(3-methyl-1,2,4-thiadiazol-5-yl)-5,6-dihydro-[1,2,4]triazolo[4,3-a]pyrazin-7(8H)-yl)(3,4,5-trifluorophenyl)methanone] |
| 20% | Cc1nsc(-c2nnc3n2CCN(C(=O)c2cccc(F)c2)[C@@H]3C)n1 [Compound 15, (R)-(3-fluorophenyl)(8-methyl-3-(3-methyl-1,2,4-thiadiazol-5-yl)-5,6-dihydro-[1,2,4]triazolo[4,3-a]pyrazin-7(8H)-yl)methanone] |
| 29% | Cc1nsc(-c2nnc3n2CCN(C(=O)c2ccc(F)c(F)c2F)C3C)n1 (racemic) [Compound 33, (8-methyl-3-(3-methyl-1,2,4-thiadiazol-5-yl)-5,6-dihydro-[1,2,4]triazolo[4,3-a]pyrazin-7(8H)-yl)(2,3,4-trifluorophenyl)methanone] |
| 31% | Cc1nsc(-c2nnc3n2CCN(C(=O)c2cc(F)c(F)c(F)c2F)C3C)n1 (racemic) [Compound 31, (8-methyl-3-(3-methyl-1,2,4-thiadiazol-5-yl)-5,6-dihydro-[1,2,4]triazolo[4,3-a]pyrazin-7(8H)-yl)(2,3,4,5-tetrafluorophenyl)methanone] |
| 76% | Cc1nsc(-c2nnc3n2CCN(C(=O)c2ccc(Cl)c(Cl)c2)C3C)n1 (racemic) [Compound 38, (3,4-dichlorophenyl)(8-methyl-3-(3-methyl-1,2,4-thiadiazol-5-yl)-5,6-dihydro-[1,2,4]triazolo[4,3-a]pyrazin-7(8H)-yl)methanone] |
| 52% | Cc1nsc(-c2nnc3n2CCN(C(=O)c2ccc(F)c(Cl)c2)C3C)n1 (racemic) [Compound 35, (3-chloro-4-fluorophenyl)(8-methyl-3-(3-methyl-1,2,4-thiadiazol-5-yl)-5,6-dihydro-[1,2,4]triazolo[4,3-a]pyrazin-7(8H)-yl)methanone] |
| 27% | C[C@H](F)c1noc(-c2nnc3n2CCN(C(=O)c2ccc(F)cc2)[C@@H]3C)n1 [Compound 45-1] |
| 23% | Cc1nsc(-c2nnc3n2CCN(C(=O)c2ccc(F)cc2F)[C@@H]3C)n1 [Compound 18, (R)-(2,4-difluorophenyl)(8-methyl-3-(3-methyl-1,2,4-thiadiazol-5-yl)-5,6-dihydro-[1,2,4]triazolo[4,3-a]pyrazin-7(8H)-yl)methanone] |
